Active and inactive are the calls of the source. The rule behind the calls is not given here.

The test system of this test is Vaccinia virus. Put plainly: Antiviral activity against vaccinia virus infected in HEL cells assessed as reduction of virus-induced cytopathogenicity. Type of test: functional, organism-based. The following applies: Orthopoxvirus vaccinia. (Damage to the host cells serves as the signal in cytopathic effect assays.)
Turning to `COc1cc(NC(C)CCCNC(=O)N(C2CCCCC2)C2CCCCC2)c2ncccc2c1` (stereo not given), the result was inactive. With `COc1cc(NC(C)CCCNC(=O)n2nnc3ccccc32)c2ncccc2c1` (stereo not given) [PRIMAQUINE BENZOTRIAZOLIDE], the outcome was inactive. Regarding `COc1cc(NC(C)CCCNC(=O)NCc2ccncc2)c2ncccc2c1` (stereo not given), the result was inactive. Take `COc1cc(NC(C)CCCNC(=O)NC(c2ccccc2)c2ccccc2)c2ncccc2c1` (stereo not given): the outcome was inactive. As for `COc1cc(NC(C)CCCNC(=O)NCC2CCCCC2)c2ncccc2c1` (stereo not given), the outcome was inactive. As to `CCN(CC)C(=O)NCCCC(C)Nc1cc(OC)cc2cccnc12` (stereo not given), the result was inactive. With `COc1cc(NC(C)CCCNC(=O)NCCc2ccccc2)c2ncccc2c1` (stereo not given), the result was inactive. Turning to `COc1cc(NC(C)CCCNC(=O)NC2CCCC2)c2ncccc2c1` (stereo not given), the outcome was inactive. For `COc1cc(NC(C)CCCNC(=O)NC2CCCCC2)c2ncccc2c1` (stereo not given) the value was “inactive”. Turning to `COc1cc(NC(C)CCCNC(=O)NCc2ccccc2)c2ncccc2c1` (stereo not given), the result was inactive.

Source of the values: ChEMBL document CHEMBL1156695, “The novel primaquine derivatives of N-alkyl, cycloalkyl or aryl urea: synthesis, cytostatic and antiviral activity evaluations” (Eur J Med Chem, 2008).
